The target in one experiment is T1, KDM2B (FBXL10) (Homo sapiens, UniProt Q8NHM5).
T1 sequence (Q8NHM5 1-650): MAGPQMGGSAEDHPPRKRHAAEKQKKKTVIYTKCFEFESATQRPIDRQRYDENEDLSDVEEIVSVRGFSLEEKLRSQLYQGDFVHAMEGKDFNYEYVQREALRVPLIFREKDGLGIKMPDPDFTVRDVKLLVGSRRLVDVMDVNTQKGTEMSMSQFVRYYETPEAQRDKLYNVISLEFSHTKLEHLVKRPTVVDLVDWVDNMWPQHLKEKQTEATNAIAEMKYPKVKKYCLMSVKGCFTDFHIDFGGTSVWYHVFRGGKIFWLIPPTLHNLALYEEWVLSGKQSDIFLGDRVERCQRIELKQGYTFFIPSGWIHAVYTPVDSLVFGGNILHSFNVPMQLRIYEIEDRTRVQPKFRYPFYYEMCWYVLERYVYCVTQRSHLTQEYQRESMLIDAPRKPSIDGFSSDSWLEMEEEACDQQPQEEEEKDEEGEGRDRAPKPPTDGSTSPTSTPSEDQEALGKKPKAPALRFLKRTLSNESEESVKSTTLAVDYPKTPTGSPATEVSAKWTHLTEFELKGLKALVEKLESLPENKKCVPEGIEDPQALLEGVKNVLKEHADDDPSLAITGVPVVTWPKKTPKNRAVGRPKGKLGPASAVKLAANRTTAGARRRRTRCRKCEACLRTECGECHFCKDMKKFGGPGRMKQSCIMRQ
Kind of experiment: Histone lysine demethylase AlphaLISA assay, KDM2B. Type of experiment: biochemical. The conditions noted are these: read-out: KDM2B HDME Inhibition IC50. The gist of the method:
(§1)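 AlphaLISA demethylation readout: enzyme preincubated 10 min, then 10 min with compounds in 3% DMSO buffer, before biotinylated methyl-lysine histone peptide substrate with 25 μM L-Asc and 10 μM α-KG, room temperature. Acceptor beads then streptavidin donor beads added, dark incubation, plates read.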
(In general: In Alpha technology, singlet oxygen from a donor bead excites a nearby acceptor bead.)

A further experiment concerns the target T2, KDM5B (Homo sapiens, UniProt Q9UGL1).
T2 construct: (a.a. 1-752); host or cells: U2OS
T2 sequence (Q9UGL1 1-752): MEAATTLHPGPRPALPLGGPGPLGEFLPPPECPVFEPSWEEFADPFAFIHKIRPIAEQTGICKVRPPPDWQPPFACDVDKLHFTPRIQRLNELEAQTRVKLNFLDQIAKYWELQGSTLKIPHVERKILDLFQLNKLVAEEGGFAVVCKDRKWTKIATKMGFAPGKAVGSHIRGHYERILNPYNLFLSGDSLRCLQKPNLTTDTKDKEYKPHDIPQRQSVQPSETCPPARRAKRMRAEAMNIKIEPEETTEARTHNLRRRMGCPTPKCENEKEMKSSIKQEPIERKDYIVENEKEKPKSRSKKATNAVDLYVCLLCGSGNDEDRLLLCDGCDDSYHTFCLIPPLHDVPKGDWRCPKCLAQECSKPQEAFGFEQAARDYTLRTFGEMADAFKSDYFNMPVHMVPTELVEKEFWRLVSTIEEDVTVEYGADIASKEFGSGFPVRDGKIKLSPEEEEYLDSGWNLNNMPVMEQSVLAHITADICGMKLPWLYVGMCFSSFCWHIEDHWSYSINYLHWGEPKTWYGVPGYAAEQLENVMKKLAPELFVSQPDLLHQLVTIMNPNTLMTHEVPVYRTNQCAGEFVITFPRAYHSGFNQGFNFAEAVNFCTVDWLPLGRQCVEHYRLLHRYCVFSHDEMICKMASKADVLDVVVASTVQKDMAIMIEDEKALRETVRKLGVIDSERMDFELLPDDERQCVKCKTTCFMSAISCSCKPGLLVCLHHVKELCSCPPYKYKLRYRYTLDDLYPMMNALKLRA
As to the kind of experiment: Histone lysine demethylase immunofluorescence assay, U2OS cells transfected with KDM5B. Format: cell-based. The conditions noted are these: U2OS cells transfected with pCMVHA KDM5B; mark detected H3K4me2; 20 hours. In a few lines: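 U2OS cells were transiently transfected with HA-tagged demethylase and reseeded after 6 h into compound-containing DMEM/10% FBS for 20 h. Cells were fixed in formaldehyde and immunostained for HA and the relevant histone methyl mark, then imaged. IC50 is based on mean mark staining in HA+ transfected cells.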

The next experiment concerns the target T3, KDM5C (JARID1C) (Homo sapiens, UniProt P41229).
T3 construct: 2-1560; purchased BPS; host or cells: Bac (baculovirus system)
As to the kind of experiment: Histone lysine demethylase AlphaLISA assay, KDM5C. Type of experiment: biochemical. The conditions noted are these: read-out: KDM5C HDME Inhibition IC50. The gist of the method:
as §1

A further experiment concerns MCF7 cells. As to the kind of experiment: Cell proliferation assay MCF7. Format: cell-based. The following applies: MCF7 human breast cancer cells; 120 hours; ATPlite 1 Step. The gist of the method:
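Cells grown 24 h in DMEM GlutaMAX/10% FBS, then exposed to compounds in duplicate (≤0.5% DMSO) for 120 h. Viability read as ATP luminescence (ATPlite 1 Step). Seeding set to reach ~90% confluence at harvest.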
On the technique in general: In ATP-based viability assays light output follows the ATP content of the culture.

Structures are written as SMILES.

Our source for the IC50 and EC50 values is US9650339B2, “Inhibitors of histone demethylases” (Gilead Sciences, Inc., priority 2013, dated 2017).

T3 sequence (P41229 2-1560): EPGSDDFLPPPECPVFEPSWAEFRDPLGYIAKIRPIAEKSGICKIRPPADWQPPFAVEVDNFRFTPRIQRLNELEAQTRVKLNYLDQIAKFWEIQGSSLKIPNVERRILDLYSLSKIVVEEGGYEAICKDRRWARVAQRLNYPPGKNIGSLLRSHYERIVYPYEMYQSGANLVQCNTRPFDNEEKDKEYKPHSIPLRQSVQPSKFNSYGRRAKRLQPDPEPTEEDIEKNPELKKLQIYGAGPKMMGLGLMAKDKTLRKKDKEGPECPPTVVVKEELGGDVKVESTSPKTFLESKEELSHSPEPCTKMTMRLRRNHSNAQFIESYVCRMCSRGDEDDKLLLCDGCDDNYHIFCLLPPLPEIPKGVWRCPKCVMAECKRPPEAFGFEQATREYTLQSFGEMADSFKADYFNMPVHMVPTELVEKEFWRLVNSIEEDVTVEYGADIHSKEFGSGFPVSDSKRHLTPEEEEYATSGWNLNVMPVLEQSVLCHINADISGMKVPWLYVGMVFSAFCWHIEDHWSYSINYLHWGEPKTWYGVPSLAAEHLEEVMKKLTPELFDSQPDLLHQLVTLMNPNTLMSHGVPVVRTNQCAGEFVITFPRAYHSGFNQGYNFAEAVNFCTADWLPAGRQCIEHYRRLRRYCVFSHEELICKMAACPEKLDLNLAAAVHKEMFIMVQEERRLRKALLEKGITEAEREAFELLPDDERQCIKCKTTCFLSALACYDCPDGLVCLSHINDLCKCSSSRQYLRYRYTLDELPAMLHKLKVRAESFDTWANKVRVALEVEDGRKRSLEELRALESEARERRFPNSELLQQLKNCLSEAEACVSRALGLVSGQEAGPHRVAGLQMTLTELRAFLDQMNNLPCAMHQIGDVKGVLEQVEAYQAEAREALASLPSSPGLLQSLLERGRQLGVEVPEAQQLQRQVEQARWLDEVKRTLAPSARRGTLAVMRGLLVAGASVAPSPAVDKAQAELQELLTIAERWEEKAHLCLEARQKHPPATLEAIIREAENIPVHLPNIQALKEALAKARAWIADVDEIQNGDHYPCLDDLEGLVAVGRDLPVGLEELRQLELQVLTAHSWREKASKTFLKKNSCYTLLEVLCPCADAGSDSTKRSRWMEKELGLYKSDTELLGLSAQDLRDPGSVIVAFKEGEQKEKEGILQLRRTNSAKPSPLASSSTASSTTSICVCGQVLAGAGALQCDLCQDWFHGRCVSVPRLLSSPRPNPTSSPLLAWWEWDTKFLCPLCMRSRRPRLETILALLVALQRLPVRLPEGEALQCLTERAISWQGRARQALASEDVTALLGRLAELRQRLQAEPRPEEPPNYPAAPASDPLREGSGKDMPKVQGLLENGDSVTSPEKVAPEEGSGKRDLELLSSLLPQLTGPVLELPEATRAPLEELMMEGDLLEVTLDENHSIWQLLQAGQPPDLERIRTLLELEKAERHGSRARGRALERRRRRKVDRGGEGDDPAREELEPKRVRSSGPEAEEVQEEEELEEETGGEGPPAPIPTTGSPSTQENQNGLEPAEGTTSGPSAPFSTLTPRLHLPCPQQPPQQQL

What is called IC50 is the point on the concentration scale where inhibition reaches its midpoint. Regarding `CN(C)CCNCc1ccnc(CNCCCN(C)Cc2ccccc2)c1` [Compound 18, benzyl[3-({[4-({[2-(dimethylamino)ethyl]-amino}methyl)pyridin-2-yl]methyl}-amino)propyl]-methylamine], at KDM2B (FBXL10), the half-inhibitory concentration (IC50) is > 2500 nM.
For `O=Cc1ccnc(CNCC(=O)NC2CCN(Cc3ccccc3)C2)c1` (stereo not shown) [Compound 113, N-(1-benzylpyrrolidin-3-yl)-2-{[(4-formylpyridin-2-yl)methyl]amino}-acetamide], the half-inhibitory concentration (IC50) was > 2500 nM against KDM5B and 250 to 2500 nM on KDM5C (JARID1C).
For `COC(=O)CNCc1cc(/C=N/C2CC2)ccn1` [Compound 59, methyl 2-[({4-[N-cyclopropyl-carboximidoyl]pyridin-2-yl}methyl)amino]-acetate] the same measures were > 2500 nM and < 250 nM.
As usually defined, the EC50 is the concentration needed to bring the measured effect to its halfway point. A low value points to a more potent agent. `CCN(CC)CCCCNCc1cc(C2NCCCN2C)ccn1` (stereo not shown) [Compound 68, [4-(diethylamino)butyl]({[4-(1-methyl-1,3-diazinan-2-yl)pyridin-2-yl]methyl})amine]: the half-maximal inhibitory concentration (IC50) against KDM5B is < 250 nM. The 50% effective concentration (EC50) in the experiment with MCF7 cells is < 250 nM.
On to `CCN(CCN(C)C)C(=O)CN(Cc1cc(CNC(=O)C(F)(F)F)ccn1)C(=O)C(F)(F)F` [Compound 26, N-[(2-{[N-({[2-(dimethylamino)ethyl]-(ethyl)carbamoyl}-methyl)-2,2,2-trifluoroacetamido]-methyl}pyridin-4-yl)methyl]-2,2,2-trifIuoroacetamide], for which the IC50 against KDM5B was < 250 nM. Also, the EC50 in the experiment on MCF7 cells was < 250 nM.
`COCCNCc1ccnc(CNCCCN(C)Cc2ccccc2)c1` [Compound 19, benzyl(3-{[(4-{[(2-methoxyethyl)amino]-methyl}pyridin-2-yl)methyl]amino}-propyl)methylamine]: the half-inhibitory concentration (IC50) at KDM5B, on KDM5C (JARID1C) and on KDM2B (FBXL10) was > 2500 nM throughout.
For `O=Cc1ccnc(CNCCCCN(Cc2ccccc2)C2CC2)c1` [Compound 109, 2-[({4-[benzyl-(cyclopropyl)amino]-butyl}amino)methyl]-pyridine-4-carbaldehyde], the IC50 at KDM5B is 250 to 2500 nM.
For the molecule `CN(C)CCCCNCc1cc(CN)ccn1` [Compound 2, [2-({[4-(dimethylamino)butyl]-amino}methyl)pyridin-4-yl]methanamine], the IC50 on KDM5B was < 250 nM; on KDM2B (FBXL10), > 2500 nM. For the same molecule, the EC50 in the experiment on MCF7 cells was < 250 nM.
With `COc1ccccc1CN1CCC(NC(=O)CNCc2cc(CNC3CC3)ccn2)CC1` [Compound 20, 2-[({4-[(cyclopropylamino)-methyl]pyridin-2-yl}methyl)amino]-N-{1-[(2-methoxyphenyl)methyl]-piperidin-4-yl}acetamide], the IC50 was 250 to 2500 nM against KDM5B, < 250 nM at KDM5C (JARID1C) and > 2500 nM on KDM2B (FBXL10).
